Test results: patent US20150335670A1, “Medical applications of Notoginsenoside Fc” (SHANGHAI UNIVERSITY OF TRADITIONAL CHINESE MEDICINE, priority 2013, published 2015)
Several values for one entry are separate records, joined by “and”; a condition that tells them apart may be missing. Identical values can stand only once.

Columns and labels:
platelet = test: In vitro platelet aggregation assay (ADP-induced, nephelometry); format: cell-based, rat
Procedure: 2.1.1 In vitro platelet aggregation assay: blood samples were placed in a centrifuge tube pre-coated with sodium citrate and centrifuged at 100 g for 5 min. The supernatant was collected and designated as rich platelet (PRP). After addition of prostacyclin (2 μg/ml), PRP was centrifuged at 700 g for 5 min and washed twice with 0.9% saline. The washed platelets were re-suspended in Tyrode buffer and diluted at a density of 4×10^8 cells/ml for further utilization. Platelet aggregation assay was provided according to a nephelometry method: platelet plasma was placed in cuvette; after addition of a inducing agent (ADP: 5-adenosine diphosphate disodium salt: 1×10^−4 mol/L), the platelet plasma was stirred with magnetic particles, wherein platelet was gradually aggregated, plasma turbidity was reduced, and transmittance was increased. Changes were recorded for drawing a dynamic curve of platelet aggregation. Aggregation rate and transmittance for PRP were regarded as 0; aggregation rate and transmittance of suspension were regarded as 100%. A platelet aggregation instrument was used for automatic measurement, recording, and drawing the platelet aggregation curve. For judging inhibiting or promoting of aggregation, it was mainly depending on whether synergy or antagonism happened with the inducing agent; wherein synergy was to promote platelet aggregation, antagonism was to inhibit platelet aggregation.
Blank control group: 0.9% physiological saline (NS).
Model group: adenosine diphosphate (ADP) (10 mM).
Positive control group: clopidogrel (5 mM).
Treatment groups: six rats for each group, Fc dissolved in double distilled water (prepared with different concentrations).

platelet thrombus = test: Whole animal thrombogenesis assay (extracorporeal circulation model, thrombus weight); format: in vivo, rat; conditions: rats, 8.1 mg/kg intravenous, extracorporeal circulation started 5 min later, 15 min, blank control 37.2 mg
Source text: 2.1.2 Whole animal thrombogenesis assay: when arterial blood platelets contact a rough surface of a wire, the platelets are adhered to the wire and form platelet thrombus on a surface thereof. When platelet adhesion and aggregation function is suppressed, thrombus is light. Therefore, thrombus weight can measure platelet adhesion and aggregation functions.
Referring to FIG. 3, effect of the notoginsenoside Fc on the platelet aggregation function is illustrated. […] In the extracorporeal circulation model, the rats were intravenous administered with Fc at dose of 8.1 mg/kg. Five minutes later, the extracorporeal circulation was initiated and stopped after fifteen minutes. The thrombus formed on the thread was weighed. Significant difference was found between the blank control group and the Fc treatment group (**P<0.01).

rat tail bleeding = test: Bleeding time assay (rat tail transection); format: in vivo; conditions: rats; vs control
Source text: 2.1.3.1 Bleeding time assay: rat tail was transected 0.5 cm from the tip to induce bleeding. And the bleeding time was defined as the time from the start of transection to bleeding cessation. The time at which the flow of blood ceased for 30 s was considered as bleeding cessation.

rat plasma = test: Blood coagulation index APTT in rat plasma; format: biochemical
Source text: (§1) 2.1.3.2 Four indexes of blood coagulation: i) Prothrombin time (PT) mainly reflects extrinsic coagulation conditions. Its value is increased when the levels of coagulation factor IX and XI in plasma are reduced, which usually occurs in hemophilia, hemophilia B and factor XI deficiency patients. Conversely, the reduction of it is seen in hypercoagulable state, when the procoagulant substances get into blood and the activity of coagulation factors is increased. ii) Activated partial thromboplastin time (APTT) reflects mainly intrinsic coagulation conditions. Its value is changed under the similar condition as PT. iii) Thrombin time (TT) mainly reflects the abnormality in the conversion of fibrinogen into fibrin. Its value is elevated in DIC hyperfibrinolysis period, afibrinogenemia and hemoglobin hyperlipidemia, and when degradation products (FDPs) of blood fibrin are increased. iv) Fibrinogen (Fibrinogen, FIB) mainly reflects the content of fibrinogen in plasma. Generally, its concentration is elevated in acute myocardial infarction. The reduction of it is observed in DIC dissolution of low consumption of coagulation, primary fibrinolysis, severe hepatitis, hepatic cirrhosis.

standard human plasma = test: Four indexes of blood coagulation (APTT, PT), human; format: biochemical; conditions: 80 μg/ml
Source text: Notoginsenoside Fc (molecular weight 1211.38, HPLC purity≧99%, from Institute of Chinese Materia Medica), clopidogrel (molecular weight 419.90, HPLC purity≧98%, from National Institutes for Drug Control), standard human plasma, reagents for measurement of four indexes of blood coagulation (from Siemens, Germany), and adenosine diphosphate (ADP) (from Sigma, USA).
as §1, with “Generally, its concentration is elevated in acute myocardial infarction. The reduction of it is observed in DIC dissolution of low consumption of coagulation, primary fibrinolysis, severe hepatitis, hepatic cirrhosis.” left out

[1] = system: acute myocardial infarction in rats; test: Acute myocardial infarction in rats (coronary ligation, TTC staining, pathohistology); format: in vivo, rat; conditions: for myocardial infarction area (ischemic area %): individual animals
Procedure: Model preparing method: 30 SD rats (Shanghai University of Traditional Chinese Medicine Experimental Animal Center), weight: 320-370 g; rat was treated with anesthesia with pentobarbital (35 mg/kg), supine fixing; neck midline incision, separating trachea, tracheotomy, inserting a breathing tube, adjusting a frequency and tidal volume of a ventilator; median sternotomy thoracotomy (3-4 intercostal), using thin surgical needle and line six for starting at a left atrial appendage, and ligation at pulmonary cone. Successful standard thereof was that: observing with naked eyes (anterior descending artery blood supply area was darken or pale). Chest was quickly closed. For the sham group, the line passed the left anterior descending coronary artery bypass without ligation.
TTC staining: rat hearts were frozen at −20° C., and were taken out after being hard; the rat hearts were left-coronally excised into 5-6 pieces at a thickness of 3-4 mm. Then the rat hearts were placed in 0.5% TTC solution, and incubated at 37° C. for 15 min. The pieces were taken out and fixed in 4% formaldehyde solution.
The hearts were cut according to two different colors and drained water with filter paper before weighing. Calculation formula was as follows: ischemic area (%)=[…]×100%. Meanwhile, the hearts were partly acquired for pathological analysis.
Control group: six rats, administered with 0.9% physiological saline (NS) after surgery.
Sham operation group: six rats, opening chest and passing line without ligation.
Positive medicine group: six rats, administered with ticagrelor (4.1 mg/kg) after surgery.
4 mg/kg Fc treatment group: six rats, administered with Fc (4 mg/kg) after surgery.
12 mg/kg Fc treatment group: six rats, administered with Fc (12 mg/kg) after surgery.

In the case of `CC(C)=CCC[C@](C)(O[C@@H]1O[C@H](CO[C@@H]2OC[C@@H](O)[C@H](O)[C@H]2O)[C@@H](O)[C@H](O)[C@H]1O)[C@H]1CC[C@]2(C)[C@@H]1[C@H](O)C[C@@H]1[C@@]3(C)CC[C@H](O[C@@H]4O[C@H](CO)[C@@H](O)[C@H](O)[C@H]4O[C@@H]4O[C@H](CO)[C@@H](O)[C@H](O)[C@H]4O[C@@H]4OC[C@@H](O)[C@H](O)[C@H]4O)C(C)(C)[C@@H]3CC[C@]12C` [Notoginsenoside Fc, notoginsenoside Fc], the IC50 (platelet; ADP-induced, 0.1-40 μM, read-out: IC50 (inhibition of platelet aggregation)) is reported as 13.5 µM, the platelet aggregation rate (platelet; ADP-induced, Fc 200 μM) is reported as 25.8% and the “aggregation rate (%)” value (platelet; ADP-induced, dose 0.1 μM, listed as Fc) is reported as 47.9%. The “aggregation rate (%)” value (platelet; ADP-induced, dose 0.1 μM, listed as notoginsenoside Fc) was 47.98%, the “aggregation rate (%)” value (platelet; ADP-induced, dose 10 μM) was 42.83% and the “aggregation rate (%)” value (platelet; ADP-induced, dose 20 μM) was 32.33%. For the same compound, the “aggregation rate (%)” value (platelet; ADP-induced, dose 30 μM) was 31.60%, the “aggregation rate (%)” value (platelet; ADP-induced, dose 40 μM, listed as Fc) was 28.1% and the “aggregation rate (%)” value (platelet; ADP-induced, dose 40 μM, listed as notoginsenoside Fc) was 28.13%. The “decreasing amplitude of platelet aggregation rate” value (platelet; from 0.1 μM to 40 μM) was “up to 19.8%”, the “weight of thrombus (wet weight)” value (platelet thrombus; listed as FC) was 28.2 mg and the “weight of thrombus (wet weight)” value (platelet thrombus; listed as Fc) was “actively reduce thrombogenesis”. For the same compound, the “rat tail bleeding time” value (rat tail bleeding) was “significantly prolonged”, the “APTT Time” value (rat plasma; 5 μg/ml) was 19.20 s and the “APTT Time” value (rat plasma; 5 μg/ml, listed as Fc) was 19 s. The “APTT Time” value (rat plasma; 10 μg/ml) was 20.31 s, the “APTT Time” value (rat plasma; 20 μg/ml) was 21.61 s and the “APTT Time” value (rat plasma; 80 μg/ml) was 28.25 s. The “APTT Time” value (rat plasma; 160 μg/ml) was 32.65 s, the “APTT Time” value (rat plasma; 160 μg/ml, listed as Fc) was 32 s and the “difference in APTT” value (rat plasma; from 5 μg/ml to 160 μg/ml) was 13 s. For the same compound, the APTT (standard human plasma; blank control 91 s) was 126 s, the PT (standard human plasma; vs blank control) was “longer” and the “myocardial infarction area (ischemic area %)” value ([1]; Fc 4 mg/kg after surgery) was 17.27% and 22.31% and 22.8% and 19.05% and 19.74% and 16.88%. For the same compound, the pathohistology of myocardium ([1]; Fc 4 mg/kg, FIG. 12) was “arrangement of most of the myocardial cells was normal”, the “myocardial infarction area (ischemic area %)” value ([1]; Fc 12 mg/kg after surgery) was “reduced more myocardial infarction than the positive medicine group and 5.843% and 3.482% and 5.463% and 4.892% and 5.19% and 4.595%” and the pathohistology of myocardium ([1]; Fc 12 mg/kg, FIG. 13) was “arrangement of the myocardial cells was almost normal”. The “percentage of the infarcted area” value ([1]; Fc 4 and 12 mg/kg, FIG. 8, vs control) was “significantly reduced”.
For `CCCSc1nc(N[C@@H]2C[C@H]2c2ccc(F)c(F)c2)c2nnn([C@@H]3C[C@H](OCCO)[C@@H](O)[C@H]3O)c2n1` [ticagrelor, reference compound], the “myocardial infarction area (ischemic area %)” value ([1]; ticagrelor 4.1 mg/kg after surgery) was 15.15% and 17% and 13.85% and 14.24% and 16.69% and 16.94% and the pathohistology of myocardium ([1]; ticagrelor 4.1 mg/kg, FIG. 11) was “arrangement of myocardial cells was disordered in local area”.
